Values of other authors as cited in patent US10463707B2, “Process for preparing herbal extracts” (MOLEAC PTE LTD., priority 2015, dated 2019).

Settings: Chen et al. Planta Med 2009

SMILES: C/C=C\c1cc(OC)c(OC)cc1OC [beta asarone]
- Safe limits for beta asarone consumption: 0.115 mg per person per day
- Safe limits for beta asarone consumption (equivalent) (equivalent to the per-person limit): 0.002 mg/kg body weight/day
